The results in this text go back to ChEMBL document CHEMBL3045532, “Synthesis and evaluation of novel prodrugs of naproxen” (Med Chem Res, 2011).

The subject of series [1] is Rattus norvegicus. Put plainly: Anti-inflammatory activity in Rattus norvegicus Wistar (rat) assessed as inhibition of carrageenan-induced edema volume at 62.8 mg/kg, po measured after 90 min. Type of series: functional. The settings on record: 1.5 h. For orientation: The carrageenan paw model is a standard test of acute inflammation.
Series [2] concerns Rattus norvegicus. In words: Anti-inflammatory activity in Rattus norvegicus Wistar (rat) assessed as inhibition of carrageenan-induced edema volume at 62.8 mg/kg, po measured after 120 min. The class given is functional. The settings on record: 2 h.
Series [3] deals with Rattus norvegicus. Put plainly: Gastrointestinal toxicity in Rattus norvegicus Wistar (rat) assessed as ulcer at 62.8 mg/kg, po. The class given is organism-based. Set-up: dose 62.8 mg/kg, route oral. The settings on record: in vivo.
In series [4] the test system is Rattus norvegicus. Put plainly: Anti-inflammatory activity in Rattus norvegicus Wistar (rat) assessed as inhibition of carrageenan-induced edema volume at 62.8 mg/kg, po measured after 60 min. The settings on record: 1 h. Type of series: functional.
The test system of series [5] is Mus musculus. Put plainly: Analgesic activity in Mus musculus (mouse) assessed as inhibition of acetic acid-induced writhing at 62.8 mg/kg, po pretreated 1 hr before acetic acid challenge. Type of series: functional. On the technique in general: In writhing tests, fewer writhes than in controls are read as antinociception.
The subject of series [6] is Rattus norvegicus. Put plainly: Anti-inflammatory activity in Rattus norvegicus Wistar (rat) assessed as inhibition of carrageenan-induced edema volume at 62.8 mg/kg, po measured after 30 min. The class given is functional. The settings on record: 0.5 h.
Series [7] is described as follows: Prodrug conversion in phosphate buffer assessed as half-life for hydrolysis at pH 7.4. Type of series: physicochemical.
Series [8] can be described thus: Prodrug conversion in acetate buffer assessed as half-life for hydrolysis at pH 4. Type of series: physicochemical.
Series [9] in a line: Prodrug conversion in acetate buffer assessed as half-life for hydrolysis at pH 5. The class given is physicochemical.
Series [10] is described as follows: Prodrug conversion in acetate buffer assessed as half-life for hydrolysis at pH 3. Type of series: physicochemical.
Series [11] has as its system Rattus norvegicus. Put plainly: Anti-inflammatory activity in Rattus norvegicus Wistar (rat) assessed as inhibition of carrageenan-induced edema volume at 66.0 mg/kg, po measured after 90 min. The class given is functional. The settings on record: 1.5 h.
In series [12] the test system is Rattus norvegicus. In words: Anti-inflammatory activity in Rattus norvegicus Wistar (rat) assessed as inhibition of carrageenan-induced edema volume at 66.0 mg/kg, po measured after 120 min. The settings on record: 2 h. Type of series: functional.
Series [13] deals with Rattus norvegicus. In words: Gastrointestinal toxicity in Rattus norvegicus Wistar (rat) assessed as ulcer at 66 mg/kg, po. The settings on record: in vivo. The class given is organism-based. Set-up: dose 66 mg/kg, route oral.
Series [14] relates to Rattus norvegicus. In words: Anti-inflammatory activity in Rattus norvegicus Wistar (rat) assessed as inhibition of carrageenan-induced edema volume at 66.0 mg/kg, po measured after 60 min. The settings on record: 1 h. Type of series: functional.
Series [15] concerns Mus musculus. In words: Analgesic activity in Mus musculus (mouse) assessed as inhibition of acetic acid-induced writhing at 66 mg/kg, po pretreated 1 hr before acetic acid challenge. The class given is functional.
In series [16] the test system is Rattus norvegicus. Put plainly: Anti-inflammatory activity in Rattus norvegicus Wistar (rat) assessed as inhibition of carrageenan-induced edema volume at 66.0 mg/kg, po measured after 30 min. The settings on record: 0.5 h. Type of series: functional.
Series [17] relates to Rattus norvegicus. Put plainly: Anti-inflammatory activity in Rattus norvegicus Wistar (rat) assessed as inhibition of carrageenan-induced edema volume at 66.4 mg/kg, po measured after 90 min. The class given is functional. The settings on record: 1.5 h.
Series [18] concerns Rattus norvegicus. In words: Anti-inflammatory activity in Rattus norvegicus Wistar (rat) assessed as inhibition of carrageenan-induced edema volume at 66.4 mg/kg, po measured after 120 min. Type of series: functional. The settings on record: 2 h.
Series [19] deals with Rattus norvegicus. In words: Anti-inflammatory activity in Rattus norvegicus Wistar (rat) assessed as inhibition of carrageenan-induced edema volume at 66.4 mg/kg, po measured after 60 min. The class given is functional. The settings on record: 1 h.
Series [20] relates to Mus musculus. In words: Analgesic activity in Mus musculus (mouse) assessed as inhibition of acetic acid-induced writhing at 66.4 mg/kg, po pretreated 1 hr before acetic acid challenge. The class given is functional.
Series [21] has as its system Rattus norvegicus. In words: Anti-inflammatory activity in Rattus norvegicus Wistar (rat) assessed as inhibition of carrageenan-induced edema volume at 66.4 mg/kg, po measured after 30 min. The class given is functional. The settings on record: 0.5 h.
The test system of series [22] is Rattus norvegicus. Put plainly: Gastrointestinal toxicity in Rattus norvegicus Wistar (rat) assessed as ulcer at 66.4 mg/kg, po. Type of series: organism-based. Set-up: dose 66.4 mg/kg, route oral. The settings on record: in vivo.
The species named for series [23] is Rattus norvegicus. In words: animal or person. The settings on record: Wistar, po, 1.5 h, read-out: INH.
Description: Anti-inflammatory activity in Rattus norvegicus Wistar (rat) assessed as inhibition of carrageenan-induced edema volume at 50.0 mg/kg, po measured after 90 min
The species named for series [24] is Rattus norvegicus. In words: animal or person. The settings on record: Wistar, po, 2 h, read-out: INH.
Description: Anti-inflammatory activity in Rattus norvegicus Wistar (rat) assessed as inhibition of carrageenan-induced edema volume at 50.0 mg/kg, po measured after 120 min
For series [25], the species on record is Mus musculus. In words: animal or person. The settings on record: po, read-out: INH.
Description: Analgesic activity in Mus musculus (mouse) assessed as inhibition of acetic acid-induced writhing at 50 mg/kg, po pretreated 1 hr before acetic acid challenge
The species entered for series [26] is Rattus norvegicus. In words: animal or person. The settings on record: Wistar, po, 0.5 h, read-out: INH.
Description: Anti-inflammatory activity in Rattus norvegicus Wistar (rat) assessed as inhibition of carrageenan-induced edema volume at 50.0 mg/kg, po measured after 30 min
For series [27], the species on record is Rattus norvegicus. In words: animal or person. The settings on record: Wistar, po, 1 h, read-out: INH.
Description: Anti-inflammatory activity in Rattus norvegicus Wistar (rat) assessed as inhibition of carrageenan-induced edema volume at 50.0 mg/kg, po measured after 60 min
The test system of series [28] is Rattus norvegicus. Put plainly: Anti-inflammatory activity in Rattus norvegicus Wistar (rat) assessed as inhibition of carrageenan-induced edema volume at 63.2 mg/kg, po measured after 90 min. The class given is functional. The settings on record: 1.5 h.
Series [29] deals with Rattus norvegicus. In words: Anti-inflammatory activity in Rattus norvegicus Wistar (rat) assessed as inhibition of carrageenan-induced edema volume at 63.2 mg/kg, po measured after 120 min. Type of series: functional. The settings on record: 2 h.
Series [30] deals with Rattus norvegicus. Put plainly: Anti-inflammatory activity in Rattus norvegicus Wistar (rat) assessed as inhibition of carrageenan-induced edema volume at 63.2 mg/kg, po measured after 60 min. The class given is functional. The settings on record: 1 h.
Series [31] has as its system Mus musculus. In words: Analgesic activity in Mus musculus (mouse) assessed as inhibition of acetic acid-induced writhing at 63.2 mg/kg, po pretreated 1 hr before acetic acid challenge. The class given is functional.
The test system of series [32] is Rattus norvegicus. Put plainly: Anti-inflammatory activity in Rattus norvegicus Wistar (rat) assessed as inhibition of carrageenan-induced edema volume at 63.2 mg/kg, po measured after 30 min. Type of series: functional. The settings on record: 0.5 h.
Series [33] relates to Rattus norvegicus. In words: Gastrointestinal toxicity in Rattus norvegicus Wistar (rat) assessed as ulcer at 63.2 mg/kg, po. The settings on record: in vivo. Type of series: organism-based. Set-up: dose 63.2 mg/kg, route oral.

With `COc1ccc2cc(C(C)C(=O)OCC(OC(C)=O)C(OC(C)=O)C(OC(C)=O)C(/C=N/CC(=O)O)OC(C)=O)ccc2c1` (stereo not given), the inhibition in vivo at 62.8 mg/kg in series [1] was 58%; in series [2], 76%; in series [4], 37%; in series [5] it was 63.6%; in series [6], 58%. In series [3], the Activity entry is “Non-toxic”. Besides, the t1/2 in series [7] stood at 25 h; in series [8] it was 44 h; in [9] it was 88 h; in series [10], 115 h.

On to `COc1ccc2cc(C(C)C(=O)OCC(OC(C)=O)C(OC(C)=O)C(OC(C)=O)C(/C=N/[C@H](C(=O)O)C(C)C)OC(C)=O)ccc2c1` (stereo not given in full), for which the inhibition in vivo at 66 mg/kg in series [11] worked out at 43%; in series [12] it was 64%; in series [14] it was 19%; in series [15], 63.6%; in series [16], 30%. Besides, in [13], the Activity result is “Non-toxic”. The t1/2 in series [7] was found to be 19 h; in series [8] it was 115 h; in [9], 88 h; in [10] it was 44 h.

As for `COc1ccc2cc(C(C)C(=O)OCC(OC(C)=O)C(OC(C)=O)C(OC(C)=O)C(/C=N/[C@@H](CS)C(=O)O)OC(C)=O)ccc2c1` (stereo not given in full), the inhibition in vivo at 66.4 mg/kg in [17] was 57%; in series [18], 67%; in [19] it was 30%; in series [20] it was 30.4%; in series [21], 42%. Besides, the t1/2 stood at 30 h in series [7], 15 h in [8], 77 h in series [9] and 44 h in series [10]. Further, the Activity result in [22] is listed as “Non-toxic”.

Turning to `COc1ccc2cc([C@H](C)C(=O)O)ccc2c1` [NAPROXEN], the inhibition in vivo at 50 mg/kg came out at 42% in series [23]; 58% in series [24]; 61.4% in series [25]; 10% in series [26]; 32% in series [27].

Regarding `COc1ccc2cc(C(C)C(=O)OCC(OC(C)=O)C(OC(C)=O)C(OC(C)=O)C(/C=N/[C@@H](C)C(=O)O)OC(C)=O)ccc2c1` (stereo not given in full), the inhibition in vivo at 63.2 mg/kg turned out to be 49% in series [28]; 67% in series [29]; 29% in series [30]; 98.2% in series [31]; 62% in series [32]. Moreover, the t1/2 worked out at 22 h in [7], 15 h in [8], 77 h in [9] and 15 h in series [10]. Moreover, the Activity entry in series [33] is “Non-toxic”.
